Data as given in ChEMBL document CHEMBL3132798, “Ketorolac beats ketoprofen: lower photodecarboxylation, photohemolysis and phototoxicity” (Medchemcomm, 2013).

Legend:
[1] = Phototoxicity against human skin fibroblasts at 1 to 100 uM measured after 14 hrs incubation and 24 hrs after initial 14 hrs incubation by MTS assay; conditions: skin fibroblast
[2] = Photohemolytic activity against human erythrocytes at 60 uM after 15 mins in presence of 81197.4 mW/m2 of UVA light; format: ADME, cell-based, Erythrocyte
[3] = Photohemolytic activity against human erythrocytes after 15 mins in presence of 81197.4 mW/m2 of UVA light; format: ADME, cell-based; conditions: erythrocyte, 0.25 h

## O=C(c1ccccc1)c1ccc2n1CCC2
[1]
  Activity: Non-toxic
[2]; erythrocyte, 0.25 h, 60 µM
  Activity: Non-toxic

## CCc1cccc(C(=O)c2ccccc2)c1
[3]
  Activity: Dose-dependent effect
[1]
  Activity: Non-toxic

## CC(C(=O)O)c1cccc(C(=O)c2ccccc2)c1 (configuration not stated) [KETOPROFEN]
[1]
  Activity: Non-toxic

## O=C(c1ccccc1)c1ccc2n1CCC2C(=O)O (configuration not stated) [KETOROLAC]
[1]
  Activity: Non-toxic
[2]; erythrocytes, read-out: Activity
  hemolysis at 0.25 h, 60 µM: 20%
